Data published in patent publication US11401278B2, “Macrocyclic indole derivatives” (The Broad Institute, Inc., priority 2017, dated 2022).
Several values for one entry are separate records, joined by “and”; a condition that tells them apart may be missing. Equal entries are not always repeated. Structures can show the parent of a compound that is named as a salt. Where two headings read alike, the source gives them in different places.

Tests used:
SUDHL5 = assay: Induction of caspase-3/7 activity (Assay 4), SUDHL5; format: cell-based; conditions: caspase-3/7 induction, median
Outline: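 Caspase-3/7 activity measured by Caspase-Glo 3/7 luminescence in DLBCL cells after 3 h compound treatment at 37 °C. Medium-only background subtracted. EC50 fitted with C0 fixed at 1 and top set to the reference compound's plateau/max induction.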

AMO-1 = assay: Antiproliferation assay (Assay 7), AMO-1; format: cell-based; conditions: CellTiter-Glo, several values per example
Outline: (§1)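 Cells were treated with compound for 72 hours at 37° C in a humidified incubator, and viability was then read by CellTiter-Glo luminescence. A parallel reference plate was read at time zero (day 0) in the same way for baseline determination.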

BCL-XL = BCL-XL (Homo sapiens (Human), UniProt Q07817); assay: Protein-protein interaction assay BCL-XL/Bad BH3 peptide (BCL-XL assay, TR-FRET); format: binding; conditions: His-BCL-XL / Bad BH3 peptide, median
Chain of BCL-XL (Q07817 other isoform, or with tags, fused parts or gaps): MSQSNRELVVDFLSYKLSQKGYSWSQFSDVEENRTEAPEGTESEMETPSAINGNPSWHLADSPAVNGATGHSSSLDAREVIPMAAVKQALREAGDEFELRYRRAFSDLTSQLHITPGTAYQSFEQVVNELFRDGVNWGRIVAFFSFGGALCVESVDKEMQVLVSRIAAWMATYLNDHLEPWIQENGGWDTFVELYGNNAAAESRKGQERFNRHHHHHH
Protocol: Assay 2 Protein-Protein Interaction Assay: BCL-XL/Bad BH3 Peptide (BCL-XL Assay)
The dose-dependent inhibition by the compounds described in this invention of the interaction between BCL-XL and the BH3 domain of Bad (both human) was determined using a steady state binding competition assay with time-resolved fluorescence energy transfer (TR-FRET) readout. For that purpose BCL-XL (amino acids 1-212, C-terminal fused to a hexahistidine (6×His) tag (SEQ ID 3) and a synthetic Bad BH3-derived peptide of sequence Biotin-PEG2-PEG2-NLWAAQRYGRELRR-Nle-SDEFVDSFKK-amide (SEQ ID 4) served as protein receptor and tracer ligand respectively. The recombinant BCL-XL protein (expressed in E. coli) was purchased from BPS Bioscience (San Diego, Calif., USA). The Bad BH3-derived peptide can be obtained from e.g. Biosyntan (Berlin, Germany).
In the assay 11 different concentrations of each compound (0.1 nM, 0.33 nM, 1.1 nM, 3.8 nM, 13 nM, 44 nM, 0.15 μM, 0.51 μM, 1.7 μM, 5.9 μM and 20 μM) were typically measured as duplicates in the same microtiter plate. For that, 100-fold concentrated DMSO solutions were prepared by serial dilutions (1:3.4) of a 2 mM stock solution in a clear, 384-well microtiter plate (Greiner Bio-One, Frickenhausen, Germany). From there, 50 nl were transferred in a dark test plate (Greiner Bio-One, Frickenhausen, Germany). The assay was initiated by addition of 2 μl of a 2.5-fold concentrated His-BCL-XL solution (usually for a 1 nM end concentration in 5 μl reaction volume) in aqueous assay buffer [50 mM Tris/HCl pH 7, 100 mM sodium chloride (NaCl), 50 mM potassium fluoride (KF), 0.005% Tween-20, 2 mM DTT, 0.1% bovine gamma globulin (BGG)] to the compounds in the assay plate. This was followed by a 10-minute incubation step at 22° C. for pre-equilibration of the putative complex between His-BCL-XL and the compounds. After that, 3 μl of a 1.67-fold concentrated solution (in assay buffer) consisting of Bad BH3-derived peptide (1 nM end concentration) and TR-FRET detection reagents [1.67 nM anti-His-Eu cryptate and 1.67 nM streptavidin-XL665 (both from Cisbio Bioassays, Codolet, France)], were added.
The mixture was incubated in the dark for one hour at 22° C. and then overnight at 4° C. The formation of BCL-XL/Bad complexes was determined by measuring the resonance energy transfer of the anti-His- Eu-cryptate antibody to the streptavidin-XL665 present in the reaction. For that purpose, the fluorescence emission at 620 nm and 665 nm after excitation at 330-350 nm was measured in a TR-FRET measuring instrument, for instance a Rubystar or a Pherastar (both from BMG Lab Technologies, Offenburg, Germany) or a Viewlux (Perkin-Elmer). The ratio of the emission at 665 nm and at 622 nm was used as indicator of the amount of BCL-XL/Bad complexes present.
The resulting data (ratio) were normalized, taking 0% inhibition as the mean value of control measurements (usually 32 data points) where all reagents were included. In this case 50 nl DMSO were used instead of compounds. A 100% inhibition corresponded to the mean value of control measurements (usually 32 data points) where all reagents except BCL-XL were included. IC50 values were determined by regression analysis based on a 4 parameter equation (minimum, maximum, IC50, Hill; Y=Max+(Min−Max)/(1+(X/IC50)^HiII) using the Screener Software (Genedata).

MV-4-11 = assay: Antiproliferation assay (Assay 7), MV-4-11; format: cell-based; conditions: CellTiter-Glo, several values per example
Outline: as §1

[1] = Homo sapiens, AMO1, 72 h, read-out: Antiproli AMO-1 [M] IC50
[2] = Homo sapiens, MV4-11, 72 h, read-out: Antiproli MV-4-11 [M] IC50
[3] = 72 hours, read-out: Antiproli MV-4-11 [M] IC50

| Compound | EC50 (SUDHL5; 3 hours) | IC50 (BCL-XL) | IC50 (MV-4-11; 72 hours, listed as 04, read-out: Antiproli MV-4-11 [M] IC50) | EC50 (SUDHL5; Homo sapiens, SU-DHL-5, 3 h) | IC50 (MV-4-11; 72 hours, listed as 07, read-out: Antiproli MV-4-11 [M] IC50) | IC50 (MV-4-11; [2]) | IC50 (MV-4-11; [3]) | IC50 (AMO-1; [1]) | IC50 (AMO-1; 72 hours, listed as 07, read-out: Antiproli AMO-1 [M] IC50) | IC50 (AMO-1; 72 hours, read-out: Antiproli AMO-1 [M] IC50) |
| --- | --- | --- | --- | --- | --- | --- | --- | --- | --- | --- |
| CCc1c2c(nn1C)C(C)N(C)S(=O)(=O)CCCn1c(C(=O)O)c(CCCOc3cccc4ccccc34)c3cccc-2c31 (racemic) [Example 18, 12-Ethyl-8,9,11-trimethyl-1-(3-(naphthalen-1-yloxy)propyl)-5,6,9,11-tetrahydro-4H,8H-pyrazolo[3′,4′:4,5][1]thia[2,8]diazacycloundecino[6,7,8-hi]indole-2-carboxylic acid 7,7-dioxide (Mixture of Stereoisomers)] | – | > 20 µM | – | 3.8 µM | – | 3.75e-06 M | – | 9.6e-06 M | – | – |
| Cc1c2c(nn1C)CN(C)S(=O)(=O)CCCn1c(C(=O)O)c(CCCOc3cccc4cc(F)ccc34)c3ccc(F)c-2c31 (racemic) [Example 25, (rac)-13-Fluoro-1-(3-((6-fluoronaphthalen-1-yl)oxy)propyl)-8,11,12-trimethyl-5,6,9,11-tetrahydro-4H,8H-pyrazolo[3′,4′:4,5][1]thia[2,8]diazacycloundecino[6,7,8-hi]indole-2-carboxylic acid 7,7-dioxide] | – | > 20 µM | – | 0.67 µM | – | 1.73e-06 M | – | 4.1e-06 M | – | – |
| Cc1c2c(nn1C)CN(C)S(=O)(=O)CCCn1c(C(=O)O)c(CCCOc3cccc4ccccc34)c3ccc(F)c-2c31 (racemic) [Example 26, (rac)-13-Fluoro-8,11,12-trimethyl-1-(3-(naphthalen-1-yloxy)propyl)-5,6,9,11-tetrahydro-4H,8H-pyrazolo[3′,4′:4,5][1]thia[2,8]diazacycloundecino[6,7,8-hi]indole-2-carboxylic acid 7,7-dioxide] | – | > 20 µM | – | 1.3 µM | – | 5.17e-07 M | – | 7.1e-06 M | – | – |
| Cc1c2c(nn1C)CN(C)S(=O)(=O)CCCn1c(C(=O)O)c(CCCOc3cccc4c3CCC4)c3ccc(F)c-2c31 (racemic) [Example 27, (rac)-1-(3-((2,3-Dihydro-1H-inden-4-yl)oxy)propyl)-13-fluoro-8,11,12-trimethyl-5,6,9,11-tetrahydro-4H,8H-pyrazolo[3′,4′:4,5][1]thia[2,8]diazacycloundecino[6,7,8-hi]indole-2-carboxylic acid 7,7-dioxide] | – | > 20 µM | – | 0.7 µM | – | 8.61e-07 M | – | 2.5e-06 M | – | – |

Continued, in another order:

| EC50 (SUDHL5; 3 hours) | IC50 (BCL-XL) | IC50 (MV-4-11; 72 hours, listed as 04, read-out: Antiproli MV-4-11 [M] IC50) | EC50 (SUDHL5; Homo sapiens, SU-DHL-5, 3 h) | IC50 (MV-4-11; 72 hours, listed as 07, read-out: Antiproli MV-4-11 [M] IC50) | IC50 (MV-4-11; [2]) | IC50 (MV-4-11; [3]) | Compound | IC50 (AMO-1; [1]) | IC50 (AMO-1; 72 hours, listed as 07, read-out: Antiproli AMO-1 [M] IC50) | IC50 (AMO-1; 72 hours, read-out: Antiproli AMO-1 [M] IC50) |
| --- | --- | --- | --- | --- | --- | --- | --- | --- | --- | --- |
| 0.63 µM | > 20 µM | 1.58e-06 M and 1.47e-06 M and 1.25e-06 M | – | – | – | – | Cc1c2c(nn1C)CN(C)S(=O)(=O)CCCn1c(C(=O)O)c(CCCOc3cccc4ccccc34)c3ccc(Cl)c-2c31 (racemic) [Example 4, (rac)-4-Chloro-2,3,14-trimethyl-7-{3-[(naphthalen-1-yl)oxy]propyl}-13,13-dioxo-10,11,12,13,14,15-hexahydro-2H-13λ^6-pyrazolo[3′,4′:4,5][1,2,8]thiadiazacycloundecino-[6,7,8-hi]indole-8-carboxylic acid] | 2.5e-06 M | – | – |
| – | > 20 µM | – | 0.51 µM | 2.15e-06 M | 1.35e-06 M | – | CCc1c2c(nn1C)CN(C)S(=O)(=O)CCCn1c(C(=O)O)c(CCCOc3cccc4cc(F)ccc34)c3ccc(F)c-2c31 (racemic) [Example 7, (rac)-12-Ethyl-13-fluoro-1-(3-((6-fluoronaphthalen-1-yl)oxy)propyl)-8,11-dimethyl-5,6,9,11-tetrahydro-4H,8H-pyrazolo[3′,4′:4,5][1]thia[2,8]diazacycloundecino[6,7,8-hi]indole-2-carboxylic acid 7,7-dioxide] | 2e-06 M | 2.2e-06 M | – |
| – | > 20 µM | – | 10 µM | – | 1.62e-05 M | – | CCc1c2c(nn1C)CN(CCCN1CCCC1=O)S(=O)(=O)CCCn1c(C(=O)O)c(CCCOc3cccc4ccccc34)c3cccc-2c31 (racemic) [Example 13, (rac)-12-Ethyl-11-methyl-1-(3-(naphthalen-1-yloxy)propyl)-8-(3-(2-oxopyrrolidin-1-yl)propyl)-5,6,9,11-tetrahydro-4H,8H-pyrazolo[3′,4′:4,5][1]thia[2,8]diazacycloundecino[6,7,8-hi]indole-2-carboxylic acid 7,7-dioxide] | > 3.3e-05 M | – | – |
| – | > 20 µM | – | 4.6 µM | – | 1.18e-05 M | 1.28e-05 M | CCc1c2c(nn1C)CN(CCN1CCCCC1)S(=O)(=O)CCCn1c(C(=O)O)c(CCCOc3cccc4ccccc34)c3cccc-2c31 (racemic) [Example 14, (rac)-12-Ethyl-11-methyl-1-(3-(naphthalen-1-yloxy)propyl)-8-(2-(piperidin-1-yl)ethyl)-4,5,6,8,9,11-hexahydropyrazolo[3′,4′:4,5][1,2,8]thiadiazacycloundecino[6,7,8-hi]indole-2-carboxylic acid 7,7-dioxide 2,2,2-trifluoroacetic acid salt] | 1.9e-05 M | – | 1.7e-05 M |
| – | > 20 µM | – | 2.5 µM | – | 9.37e-06 M | 1.04e-05 M | CCc1c2c(nn1C)CN(CCCN1CCOCC1)S(=O)(=O)CCCn1c(C(=O)O)c(CCCOc3cccc4ccccc34)c3cccc-2c31 (racemic) [Example 15, (rac)-12-Ethyl-11-methyl-8-(3-morpholinopropyl)-1-(3-(naphthalen-1-yloxy)propyl)-4,5,6,8,9,11-hexahydropyrazolo[3′,4′:4,5][1,2,8]thiadiazacycloundecino[6,7,8-hi]indole-2-carboxylic acid 7,7-dioxide 2,2,2-trifluoroacetic acid salt] | 1.2e-05 M | – | – |
| – | > 20 µM | – | 32 µM | – | > 3.3e-05 M | – | CCc1c2c(nn1C)CN(CCCN1CCCC1)S(=O)(=O)CCCn1c(C(=O)O)c(CCCOc3cccc4ccccc34)c3cccc-2c31 (racemic) [Example 16, (rac)-12-Ethyl-11-methyl-1-(3-(naphthalen-1-yloxy)propyl)-8-(3-(pyrrolidin-1-yl)propyl)-5,6,9,11-tetrahydro-4H,8H-pyrazolo[3′,4′:4,5][1]thia[2,8]diazacycloundecino[6,7,8-hi]indole-2-carboxylic acid 7,7-dioxide] | > 3.3e-05 M | – | – |
| – | > 20 µM | – | 13 µM | – | 1.65e-05 M | – | CCc1c2c(nn1C)CNS(=O)(=O)CCCn1c(C(=O)O)c(CCCOc3cccc4ccccc34)c3cccc-2c31 (racemic) [Example 17, (rac)-12-Ethyl-11-methyl-1-(3-(naphthalen-1-yloxy)propyl)-4,5,6,8,9,11-hexahydropyrazolo[3′,4′:4,5][1,2,8]thiadiazacycloundecino[6,7,8-hi]indole-2-carboxylic acid 7,7-dioxide] | > 3.3e-05 M | – | – |
